Measurements reported in patent US20160318987A1 (MEDIMMUNE LIMITED, priority 2013, published 2016).
*1 amine or outer side, *2 acyl side, *3 side chain or, on linkers, in order; H or OH if unused. Where a SMILES comes first, the peptide text is derived from it. Side-chain parts run from the residue outwards. [ ]: non-standard residue; d: D form. The star is where a group is joined. γGlu = O=C(O)[C@H](CCC(=O)[*:2])N[*:1]; Palmitoyl = CCCCCCCCCCCCCCCC(=O)*; αMeF = C[C@](N)(Cc1ccccc1)C(=O)O; Aib = CC(C)(N)C(=O)O

Experiments:
Type in all cases: cell-based
Conditions in all cases: n = 2
hGluc-R = target: T1, hGluc-R (Homo sapiens, UniProt P47871); test: cAMP functional assay, cells expressing human glucagon receptor (primary assay)
T1 construct: expressed in transfected cells

hGLP-1R = target: T2, hGLP-1R (Homo sapiens, UniProt P43220); test: cAMP functional assay, cells expressing human GLP-1 receptor (primary assay)
T2 construct: expressed in transfected cells

hGIP-R = target: T3, hGIP-R (Homo sapiens, UniProt P48546); test: cAMP functional assay, cells expressing human GIP receptor (primary assay)
T3 construct: expressed in transfected cells
T3 sequence (P48546 22-466): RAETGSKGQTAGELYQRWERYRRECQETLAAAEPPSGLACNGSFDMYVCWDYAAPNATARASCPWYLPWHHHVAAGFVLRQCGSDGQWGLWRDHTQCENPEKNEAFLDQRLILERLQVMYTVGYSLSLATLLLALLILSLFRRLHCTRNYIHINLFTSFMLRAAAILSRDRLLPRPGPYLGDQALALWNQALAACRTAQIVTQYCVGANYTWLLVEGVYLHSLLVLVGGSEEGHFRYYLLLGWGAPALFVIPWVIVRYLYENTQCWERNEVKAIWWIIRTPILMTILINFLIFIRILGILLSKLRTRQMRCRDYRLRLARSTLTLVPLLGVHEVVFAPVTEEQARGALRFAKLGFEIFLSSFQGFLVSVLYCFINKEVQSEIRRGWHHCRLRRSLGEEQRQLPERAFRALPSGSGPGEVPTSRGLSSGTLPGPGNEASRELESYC

T1 sequence (P47871 26-477): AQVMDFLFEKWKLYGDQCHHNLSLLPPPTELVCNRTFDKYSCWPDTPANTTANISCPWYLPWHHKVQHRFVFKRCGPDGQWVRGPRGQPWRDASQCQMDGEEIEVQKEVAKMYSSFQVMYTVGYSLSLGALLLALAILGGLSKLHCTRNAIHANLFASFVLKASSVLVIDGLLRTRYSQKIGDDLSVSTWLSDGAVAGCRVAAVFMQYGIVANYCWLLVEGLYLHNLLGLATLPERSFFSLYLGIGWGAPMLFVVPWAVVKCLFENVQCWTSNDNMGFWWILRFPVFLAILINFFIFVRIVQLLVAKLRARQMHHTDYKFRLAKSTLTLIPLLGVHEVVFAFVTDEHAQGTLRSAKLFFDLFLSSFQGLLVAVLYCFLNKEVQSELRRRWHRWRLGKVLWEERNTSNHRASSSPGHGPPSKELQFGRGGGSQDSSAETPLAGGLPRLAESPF
T2 sequence (P43220 24-463): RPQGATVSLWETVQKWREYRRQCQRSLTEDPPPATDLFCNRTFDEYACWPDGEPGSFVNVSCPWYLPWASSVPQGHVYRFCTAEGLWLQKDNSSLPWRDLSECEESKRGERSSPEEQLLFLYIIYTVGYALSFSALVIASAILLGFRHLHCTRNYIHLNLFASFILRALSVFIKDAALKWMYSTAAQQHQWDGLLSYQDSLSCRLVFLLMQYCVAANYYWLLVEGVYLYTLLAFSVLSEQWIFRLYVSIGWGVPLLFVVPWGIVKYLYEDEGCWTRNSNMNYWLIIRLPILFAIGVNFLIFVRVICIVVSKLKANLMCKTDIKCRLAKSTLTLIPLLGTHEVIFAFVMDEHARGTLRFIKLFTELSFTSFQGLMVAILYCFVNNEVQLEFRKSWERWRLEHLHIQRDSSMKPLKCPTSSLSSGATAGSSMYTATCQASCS

EC50 (hGluc-R)	EC50 (hGLP-1R)	EC50 (hGIP-R)	SMILES
75.9 nM	0.00929 nM	40.9 nM	CCCCCCCCCCCCCCCC(=O)N[C@@H](CCC(=O)NCCCC[C@H](NC(=O)CNC(=O)[C@H](CO)NC(=O)[C@H](CO)NC(=O)CNC(=O)[C@H](CO)NC(=O)[C@H](CO)NC(=O)CNC(=O)[C@H](CO)NC(=O)[C@H](CO)NC(=O)CNC(=O)CNC(=O)[C@H](CCCCN)NC(=O)[C@@H](NC(=O)[C@H](CC(C)C)NC(=O)[C@](C)(Cc1ccccc1)NC(=O)[C@H](C)NC(=O)[C@@H](NC(=O)[C@](C)(Cc1ccccc1)NC(=O)[C@H](CCC(=O)O)NC(=O)[C@H](CCCCN)NC(=O)[C@H](C)NC(=O)[C@H](C)NC(=O)[C@H](CCC(N)=O)NC(=O)CNC(=O)[C@H](CCC(=O)O)NC(=O)[C@H](CC(C)C)NC(=O)[C@](C)(Cc1ccccc1)NC(=O)[C@H](CO)NC(=O)[C@H](CO)NC(=O)[C@@H](NC(=O)[C@H](CC(=O)O)NC(=O)[C@H](CO)NC(=O)[C@@H](NC(=O)[C@](C)(Cc1ccccc1)NC(=O)[C@H](CO)NC(=O)CNC(=O)[C@H](CCC(=O)O)NC(=O)C(C)(C)NC(=O)[C@@H](N)Cc1c[nH]cn1)[C@@H](C)O)C(C)C)[C@@H](C)CC)C(C)C)C(N)=O)C(=O)O [SEQ ID NO: 49, H-(Aib)^2-EG-(S)^5-(α-MeF)^6-TSDV^10 SS-(α-MeF)^13-LE^15 GQAAK^20 E-(α-MeF)^22-IA-(α-MeF)^25 LVKG-(G)^30-(SSG)3-K(Ε-γ-E-Palm)] (H-H[Aib]EGS[αMeF]TSDVSS[αMeF]LEGQAAKE[αMeF]IA[αMeF]LVKGGSSGSSGSSGK([γGlu-Palmitoyl])-NH2)
19.9 nM	0.0271 nM	139 nM	CC[C@H](C)[C@H](NC(=O)[C@](C)(Cc1ccccc1)NC(=O)[C@H](CCC(=O)O)NC(=O)[C@](C)(CCCCN)NC(=O)[C@H](C)NC(=O)[C@H](C)NC(=O)[C@H](CCC(N)=O)NC(=O)CNC(=O)[C@H](CCC(=O)O)NC(=O)[C@H](CC(C)C)NC(=O)[C@](C)(Cc1ccc(O)cc1)NC(=O)[C@H](CO)NC(=O)[C@H](CO)NC(=O)[C@@H](NC(=O)[C@H](CC(=O)O)NC(=O)[C@H](CO)NC(=O)[C@@H](NC(=O)[C@](C)(Cc1ccccc1)NC(=O)[C@H](CO)NC(=O)CNC(=O)[C@H](CCC(=O)O)NC(=O)C(C)(C)NC(=O)[C@@H](N)Cc1c[nH]cn1)[C@@H](C)O)C(C)C)C(=O)N[C@@H](C)C(=O)N[C@@](C)(Cc1c[nH]c2ccccc12)C(=O)N[C@@H](CC(C)C)C(=O)N[C@H](C(=O)N[C@@](C)(CCCCN)C(=O)NCC(=O)N[C@@](C)(CCCNC(=N)N)C(N)=O)C(C)C [SEQ ID NO: 57, H-(Aib)^2-EG-(S)^5-(α-MeF)^6-TSDV^10 SS-(α-MeY)^13-LE^15 GQAA-(α-MeK)^20 E-(α-MeF)^22-IA-(α-MeW)^25 LV-(α-MeK)^28-G-(α-MeR)^30]
105 nM	0.0848 nM	105 nM	CCCCCCCCCCCCCCCC(=O)N[C@@H](CCC(=O)NCCCC[C@H](NC(=O)[C@](C)(CCCNC(=N)N)NC(=O)CNC(=O)[C@](C)(CCCCN)NC(=O)[C@@H](NC(=O)[C@H](CC(C)C)NC(=O)[C@](C)(Cc1c[nH]c2ccccc12)NC(=O)[C@H](C)NC(=O)[C@@H](NC(=O)[C@](C)(Cc1ccccc1)NC(=O)[C@H](CCC(=O)O)NC(=O)[C@](C)(CCCCN)NC(=O)[C@H](C)NC(=O)[C@H](C)NC(=O)[C@H](CCC(N)=O)NC(=O)CNC(=O)[C@H](CCC(=O)O)NC(=O)[C@H](CC(C)C)NC(=O)[C@](C)(Cc1ccc(O)cc1)NC(=O)[C@H](CO)NC(=O)[C@H](CO)NC(=O)[C@@H](NC(=O)[C@H](CC(=O)O)NC(=O)[C@H](CO)NC(=O)[C@@H](NC(=O)[C@](C)(Cc1ccccc1)NC(=O)[C@H](CO)NC(=O)CNC(=O)[C@H](CCC(=O)O)NC(=O)C(C)(C)NC(=O)[C@@H](N)Cc1c[nH]cn1)[C@@H](C)O)C(C)C)[C@@H](C)CC)C(C)C)C(N)=O)C(=O)O [SEQ ID NO: 58, H-(Aib)^2-EG-(S)^5-(α-MeF)^6-TSDV^10 SS-(α-MeY)^13-LE^15 GQAA-(α-MeK)^20 E-(α-MeF)^22-IA-(α-MeW)^25 LV-(α-MeK)^28-G-(α-MeR)^30-K(Ε-γ-E-Palm)]
